# Reference: US20020137929A1, “1 - (3-heterocyclylphenyl) isothiourea, -isourea, -guanidine and -amidine herbicidal agents” (Intellectual Property Department, BASF Aktiengesellschaft, priority 1998, published 2002)
# Tests used:
# CYPSE (Flatsedge) = assay: Preemergence weed control under flooded paddy conditions; type: in vivo, Cyperus serotinus; settings: rated 3-4 weeks after treatment
# Procedure, shortened: (§1)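 Silt loam, seeds in top 0.5 cm; flood held 1.5-3 cm; test cpd as acetone/water 50/50 into flood water, ~0.0313-0.500 kg/ha a.i.; greenhouse 3-4 wk; visual 0-9 score vs control.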
# GALAP (Galium) [1] = assay: Postemergence herbicidal evaluation; type: in vivo, Galium aparine; settings: postemergence
# Procedure, shortened: (§2)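 Scores (0–9) reflect plant stand, vigor, malformation, size, chlorosis and general appearance relative to control, read 4 to 5 weeks after treatment and averaged where tests were repeated. Application: about 0.0156–0.500 kg/ha sprayed at 40 psi onto two-week seedlings.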
# GALAP (Galium) [2] = assay: Preemergence herbicidal evaluation; type: in vivo, Galium aparine; settings: rated 4-5 weeks after treatment
# Procedure, shortened: (§3)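 Preemergence soil application of compound, sprayed in aqueous acetone at rates equivalent to about 0.0156 to 0.500 kg per hectare onto freshly sown cups. Plant response was judged by eye on a 0-9 scale four to five weeks later.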
# [3] = system: ECHORC (Watergrass (Calif.)); assay: Preemergence weed control under flooded paddy conditions; type: in vivo, Echinochloa oryzoides; settings: rated 3-4 weeks after treatment
# Procedure, shortened: as §1
# [4] = system: TRZAWR (Wheat, Winter, cv Riband); assay: Postemergence herbicidal evaluation; type: in vivo, Triticum aestivum; settings: postemergence
# Procedure, shortened: as §2
# [5] = system: SAGPY (Arrowhead (Pygmaea)); assay: Preemergence weed control under flooded paddy conditions; type: in vivo, Sagittaria pygmaea; settings: rated 3-4 weeks after treatment
# Procedure, shortened: as §1
# ORYSAT (Rice, Tebonnet) = assay: Preemergence herbicidal evaluation; type: in vivo, Oryza sativa, (L.) Tebonnet; settings: rated 4-5 weeks after treatment
# Description: Results of herbicide evaluation are expressed on a rating scale (0-9). The scale is based upon a visual observation of plant stand, vigor, malformation, size, chlorosis and overall plant appearance as compared with a control.
# The preemergence herbicidal activity of the test compounds of the present invention is exemplified by the following tests in which the seeds of a variety of monocotyledonous and dicotyledonous plants are separately mixed with potting soil and planted on top of approximately one inch of soil in separate pint cups. After planting, the cups are sprayed with the selected aqueous acetone solution containing test compound in sufficient quantity to provide the equivalent of about 0.0156 to 0.500 kg per hectare of test compound per cup. The treated cups are then placed on greenhouse benches, watered and cared for in accordance with conventional greenhouse procedures. From four to five weeks after treatment, the tests are terminated and each cup is examined and rated according to the rating system provided in Example 37.
# The compounds evaluated are reported by compound number given in Example 37.
# MOOVA (Monochoria) = assay: Preemergence weed control under flooded paddy conditions; type: in vivo, Monochoria vaginalis; settings: rated 3-4 weeks after treatment
# Procedure, shortened: as §1
# [6] = system: GLXMAW (Soybean, Williams); assay: Postemergence herbicidal evaluation; type: in vivo, Glycine max, (L.) Merr. cv Williams; settings: postemergence
# Procedure, shortened: as §2
# AMBEL (Ragweed, Common) = assay: Postemergence herbicidal evaluation; type: in vivo, Ambrosia artemisifolia; settings: postemergence
# Procedure, shortened: as §2
# SETVI (Foxtail, Green) = assay: Preemergence herbicidal evaluation; type: in vivo, Setaria viridis; settings: rated 4-5 weeks after treatment
# Procedure, shortened: as §3
# CASOB (Sicklepod) = assay: Postemergence herbicidal evaluation; type: in vivo, Cassia obtusifolia; settings: postemergence
# Procedure, shortened: as §2
structure (smiles),measurement,setting,value
"Cn1c(C(F)(F)F)cc(=O)n(-c2cc(N=C3SCC(=O)N3CC(=O)OC3CCCC3)c(Cl)cc2F)c1=O [Compound 120, Cyclopentyl 2-{{2-chloro-5-[3,6-dihydro-3-methyl-2,6-dioxo-4-(trifluoromethyl)-1(2H)-pyrimidinyl]-4-fluorophenyl}imino}-4-oxo-3-thiazolidineacetate]","herbicidal effect rating, CYPSE",CYPSE (Flatsedge); 0.0313 kg/ha,0.0
same,"herbicidal effect rating, CYPSE",CYPSE (Flatsedge); 0.0625 kg/ha,0.0
same,"herbicidal effect rating, CYPSE",CYPSE (Flatsedge); 0.1250 kg/ha,0.0
same,"herbicidal effect rating, CYPSE",CYPSE (Flatsedge); 0.2500 kg/ha,3.5
same,Herbicidal rating GALAP,GALAP (Galium) [1]; rate 0.0156 kg/ha,2.0
same,Herbicidal rating GALAP,GALAP (Galium) [1]; rate 0.0313 kg/ha,3.0
same,Herbicidal rating GALAP,GALAP (Galium) [1]; rate 0.0625 kg/ha,3.0
same,Preemergence herbicidal rating GALAP,GALAP (Galium) [2]; rate 0.0156 kg/ha,0.0
same,Preemergence herbicidal rating GALAP,GALAP (Galium) [2]; rate 0.0313 kg/ha,0.0
same,Preemergence herbicidal rating GALAP,GALAP (Galium) [2]; rate 0.0625 kg/ha,0.0
same,Preemergence herbicidal rating GALAP,GALAP (Galium) [2]; rate 0.1250 kg/ha,0.0
same,Preemergence herbicidal rating GALAP,GALAP (Galium) [2]; rate 0.2500 kg/ha,0.0
same,"herbicidal effect rating, ECHORC",[3]; 0.0313 kg/ha,7.0
same,"herbicidal effect rating, ECHORC",[3]; 0.0625 kg/ha,8.0
same,"herbicidal effect rating, ECHORC",[3]; 0.1250 kg/ha,9.0
same,"herbicidal effect rating, ECHORC",[3]; 0.2500 kg/ha,9.0
same,Herbicidal rating TRZAWR,[4]; rate 0.0156 kg/ha,3.5
same,Herbicidal rating TRZAWR,[4]; rate 0.0313 kg/ha,4.5
same,Herbicidal rating TRZAWR,[4]; rate 0.0625 kg/ha,5.0
same,"herbicidal effect rating, SAGPY",[5]; 0.0313 kg/ha,0.0
same,"herbicidal effect rating, SAGPY",[5]; 0.0625 kg/ha,0.0
same,"herbicidal effect rating, SAGPY",[5]; 0.1250 kg/ha,2.0
same,"herbicidal effect rating, SAGPY",[5]; 0.2500 kg/ha,7.5
same,Preemergence herbicidal rating ORYSAT,"ORYSAT (Rice, Tebonnet); rate 0.0156 kg/ha",0.0
same,Preemergence herbicidal rating ORYSAT,"ORYSAT (Rice, Tebonnet); rate 0.0313 kg/ha",0.0
same,Preemergence herbicidal rating ORYSAT,"ORYSAT (Rice, Tebonnet); rate 0.0625 kg/ha",0.0
same,Preemergence herbicidal rating ORYSAT,"ORYSAT (Rice, Tebonnet); rate 0.1250 kg/ha",0.0
same,Preemergence herbicidal rating ORYSAT,"ORYSAT (Rice, Tebonnet); rate 0.2500 kg/ha",0.0
same,"herbicidal effect rating, MOOVA",MOOVA (Monochoria); 0.0313 kg/ha,8.5
same,"herbicidal effect rating, MOOVA",MOOVA (Monochoria); 0.0625 kg/ha,9.0
same,"herbicidal effect rating, MOOVA",MOOVA (Monochoria); 0.1250 kg/ha,9.0
same,"herbicidal effect rating, MOOVA",MOOVA (Monochoria); 0.2500 kg/ha,9.0
same,Herbicidal rating GLXMAW,[6]; rate 0.0156 kg/ha,7.5
same,Herbicidal rating GLXMAW,[6]; rate 0.0313 kg/ha,9.0
same,Herbicidal rating GLXMAW,[6]; rate 0.0625 kg/ha,9.0
same,Herbicidal rating AMBEL,"AMBEL (Ragweed, Common); rate 0.0156 kg/ha",9.0
same,Herbicidal rating AMBEL,"AMBEL (Ragweed, Common); rate 0.0313 kg/ha",9.0
same,Herbicidal rating AMBEL,"AMBEL (Ragweed, Common); rate 0.0625 kg/ha",9.0
same,Preemergence herbicidal rating SETVI,"SETVI (Foxtail, Green); rate 0.0156 kg/ha",0.0
same,Preemergence herbicidal rating SETVI,"SETVI (Foxtail, Green); rate 0.0313 kg/ha",0.0
same,Preemergence herbicidal rating SETVI,"SETVI (Foxtail, Green); rate 0.0625 kg/ha",9.0
same,Preemergence herbicidal rating SETVI,"SETVI (Foxtail, Green); rate 0.1250 kg/ha",9.0
same,Preemergence herbicidal rating SETVI,"SETVI (Foxtail, Green); rate 0.2500 kg/ha",9.0
same,Herbicidal rating CASOB,CASOB (Sicklepod); rate 0.0156 kg/ha,3.0
same,Herbicidal rating CASOB,CASOB (Sicklepod); rate 0.0313 kg/ha,5.0
same,Herbicidal rating CASOB,CASOB (Sicklepod); rate 0.0625 kg/ha,8.0
